Results on three compounds are retold here after paper PMC11674118, “New High-Affinity Peptide Ligands for Kv1.2 Channel: Selective Blockers and Fluorescent Probes” (Cells, 2024).

Read-outs that look alike come from different tables or passages of the source. Where a SMILES comes first, the peptide text is derived from it. Bridges are numbered along the chain shown (N, C = ends).

For one assay, the system named is K-Kv1.2 channel. As to the kind of experiment: Whole-cell patch-clamp of Neuro2a cells transfected with K-Kv1.2. Type of assay: cell-based, human. Particulars: for block of current through K-Kv1.2: 10 nM peptide, whole-cell, representative traces (Figure 8d-g). The protocol: The patch-clamp method (whole-cell configuration) was used to measure membrane ion currents as described earlier. All the measurements were carried out at room temperature in a buffer containing (mM) 140 NaCl, 2.8 KCl, 2 MgCl2, 2 CaCl2, 10 HEPES, and 10 glucose (pH 7.4). Resistance of the micropipette tip was 6–8 MΩ. The pipette solution contained (mM) 140 KCl, 6 CaCl2, 2 MgCl2, 2 MgATP, 0.4 NaGTP, 10 HEPES, and 20 BAPTA/KOH (pH 7.3). The holding potential was −40 mV. The membrane potential increased from −70 to +70 mV with the 20 mV step each 20 s and returned to −40 mV. The duration of voltage pulses was 200 ms.
Measurements were carried out in 24–48 h after transfection of cells. HgTx1 (2 nM), HgTx-G (7.5 nM), Ce1 (10 nM), and Ce4 (10 nM) were dissolved in the extracellular buffer.

Assay [1] concerns Kv1.1 channel (K-Kv1.1). Description: Competitive displacement of A-HgTx from complexes with K-Kv1.1 on Neuro2a cells. The format is binding. Particulars: for Kd: displacement of A-HgTx (2 nM) from K-Kv1.1, Neuro2a cells (Figure S7), read-out: Kap, Kv1.1. The source says:
Content of secondary structures in the studied peptides
Table S1. Content of secondary structures in the studied peptides (%) according to the CD analysis.
Peptide α-helix β-sheet Turns Random coil
Studies of affinity of Ce1 and Ce4 peptides to Kv1.1 and Kv1.3 channels Affinity of MgTx to Kv1.3 channel and peptides Ce1 and Ce4 to Kv1.1 and Kv1.3 channels was studied using previously developed analytical systems based on fluorescent ligand A-HgTx and Kv1.1 (Kv1.3) channels expressed in the membrane of Neuro2a cells in the form of the conjugates with mKate2 fluorescent protein (K-Kv1.1 and K-Kv1.3). The approach based on the competitive displacement of A-HgTx (2 nM) from the complex with the channel by the increasing concentration of the studied peptide (Figure S6) and the previously approved formalism (described in the Materials and Methods section) were used to evaluate Kap values for MgTx, Ce1 and Ce4 peptides. For the complexes of MgTx, Ce1 and Ce4 with Kv1.3 channel the Kap values are 1.4±0.7, 13±8 and 30±10 nM, respectively. For the complex of Ce1 with Kv1.1 channel, Kap is equal to 11±5 nM. Since Ce4 […]
(Figure S6b), Kap of the complex between Ce4 and Kv1.1 is estimated to be higher than 300 nM.
Figure S7. Competitive displacement of A-HgTx (2 nM) from the complexes with K-Kv1.1 (a, b) and K-Kv1.3 (c) by Ce1, Ce4 and MgTx peptides. (a,c) The dependences of the Rav/Rav0 parameter (see the Materials and Methods section) on the concentration C of the added competitor are shown. Data are averaged over three independent experiments and presented as mean±SEM. (b) Histogram showing the effect of 1 µM Ce4 on the binding of A-HgTx (2 nM) to K-Kv1.1.
Molecular modeling of Kv1.2 channel and its complexes with peptide blockers
(1 picture or pasted object on this page, not shown here)

In assay [2] the target is Kv1.1 channel (K-Kv1.1). The note with it: similar analytical system, read-out: Kap, Kv1.1; cited from earlier work. The source says:
Table 2 Sequences of Ce1, Ce4, HgTx1, and MgTx peptides and dissociation constants (Kap, nM) of their complexes with Kv1.2, Kv1.1, and Kv1.3 channels. | column: Kap, nM

For a further assay, the system named is Kv1.2 channels. Particulars: mammalian cells with depolarized membranes; read-out: 50% inhibition of the Rb+ flux through Kv1.2; cited from earlier work. The source says:
Kap of MgTx in our experiments is consistent with the last value.

Consider `CC[C@H](C)[C@H](NC(=O)[C@@H](NC(=O)[C@@H](N)[C@@H](C)O)C(C)C)C(=O)N[C@@H](CC(N)=O)C(=O)N[C@H](C(=O)N[C@@H](CCCCN)C(=O)N[C@H]1CSSC[C@@H]2NC(=O)[C@H](CCCCN)NC(=O)[C@H](C)NC(=O)CNC(=O)[C@H](C)NC(=O)[C@H](Cc3c[nH]cn3)NC(=O)[C@@H]3CCCN3C(=O)CNC(=O)[C@H](Cc3ccc(O)cc3)NC(=O)[C@H](CC(C)C)NC(=O)[C@H](CC(=O)O)NC(=O)[C@H](CCCCN)NC(=O)[C@@H]3CSSC[C@@H](C(=O)N[C@@H](Cc4ccc(O)cc4)C(=O)N[C@@H](CC(N)=O)C(=O)N[C@@H](CC(N)=O)C(=O)O)NC(=O)[C@H](CCCCN)NC(=O)[C@H](CSSC[C@H](NC(=O)[C@H](CCC(N)=O)NC(=O)[C@H](CCCCN)NC(=O)[C@@H]4CCCN4C(=O)[C@H](CO)NC(=O)[C@H]([C@@H](C)O)NC1=O)C(=O)N[C@@H](CC(C)C)C(=O)N[C@@H](CCCCN)C(=O)N1CCC[C@H]1C(=O)N3)NC(=O)[C@H](CCCCN)NC(=O)CNC(=O)[C@H](CC(N)=O)NC(=O)[C@H](CCSC)NC2=O)C(C)C` [Ce1] (H-TVINVKCTSPKQCLKPCKDLYGPHAGAKCMNGKCKCYNN-OH; disulfide 7-29, 13-34, 17-36 (inferred); N-terminus and C-terminus assumed), for which, in the assay with K-Kv1.2 channel, the “block of current through K-Kv1.2” value is “block current through the channel”. For the same compound, the Kd in the assay on Kv1.1 channel (K-Kv1.1) [1] amounted to 11000 ± 5000 pM.
On to `CC[C@H](C)[C@H](NC(=O)[C@H](CCCCN)NC(=O)[C@H](Cc1ccc(O)cc1)NC(=O)[C@@H]1CSSC[C@@H]2NC(=O)[C@@H]3CCCN3C(=O)[C@H](CC(C)C)NC(=O)[C@H](CC(C)C)NC(=O)[C@@H]3CSSC[C@H](NC(=O)[C@H](CCCCN)NC(=O)CNC(=O)[C@H](CC(N)=O)NC(=O)[C@H](CCSC)NC(=O)[C@H](CSSC[C@H](NC(=O)[C@H](CCCCN)NC(=O)[C@@H](NC(=O)[C@H](CC(N)=O)NC(=O)[C@@H](NC(=O)[C@@H](NC(=O)[C@@H](N)[C@@H](C)O)[C@@H](C)CC)[C@@H](C)CC)C(C)C)C(=O)N[C@@H]([C@@H](C)O)C(=O)N[C@@H](CO)C(=O)N4CCC[C@H]4C(=O)N[C@@H](CCCCN)C(=O)N[C@@H](CCC(N)=O)C(=O)N3)NC(=O)[C@H](CCCCN)NC(=O)[C@H](C)NC(=O)CNC(=O)[C@H](C)NC(=O)[C@H](Cc3c[nH]cn3)NC(=O)[C@H]([C@@H](C)CC)NC(=O)CNC(=O)[C@H](Cc3ccc(O)cc3)NC(=O)[C@H]([C@@H](C)CC)NC(=O)[C@H](CCC(=O)O)NC(=O)[C@H](CCCCN)NC2=O)C(=O)N[C@@H](CCCCN)C(=O)N1)C(=O)O` [Ce4] (H-TIINVKCTSPKQCLLPCKEIYGIHAGAKCMNGKCKCYKI-OH; disulfide 7-29, 13-34, 17-36 (inferred); N-terminus and C-terminus assumed), for which the “block of current through K-Kv1.2” value in the assay on K-Kv1.2 channel was “block current through the channel”. The Kd in the assay with Kv1.1 channel (K-Kv1.1) [1] was greater than 300000 pM. Further, in the assay with Kv1.1 channel (K-Kv1.1) [1] (till the 1 µM concentration of peptide), the “displacement of A-HgTx (2 nM) from the complex with Kv1.1 channel” value is given as “does not displace A-HgTx”.
Regarding `CC[C@H](C)[C@@H]1NC(=O)CNC(=O)[C@H](Cc2ccccc2)NC(=O)[C@H](CCC(N)=O)NC(=O)[C@H](C)NC(=O)[C@H](CCCCN)NC(=O)[C@@H]2CSSC[C@@H](C(=O)N[C@@H](Cc3ccc(O)cc3)C(=O)N3CCC[C@H]3C(=O)N[C@@H](Cc3c[nH]cn3)C(=O)O)NC(=O)[C@H](CCCCN)NC(=O)[C@@H]3CSSC[C@H](NC(=O)[C@H](CCC(N)=O)NC(=O)[C@H](CCCCN)NC(=O)[C@@H]4CCCN4C(=O)[C@H](CO)NC(=O)[C@H]([C@@H](C)O)NC(=O)[C@@H](NC(=O)[C@H](CCCCN)NC(=O)[C@@H](NC(=O)[C@H](CC(=O)O)NC(=O)[C@@H](NC(=O)[C@@H](NC(=O)[C@@H](N)[C@@H](C)O)C(C)C)[C@@H](C)CC)C(C)C)CSSC[C@H](NC(=O)[C@H](CCCCN)NC(=O)[C@H](C)NC(=O)CNC(=O)[C@H](C)NC(=O)[C@H](CCCNC(=N)N)NC1=O)C(=O)N[C@@H](CCSC)C(=O)N[C@@H](CC(N)=O)C(=O)NCC(=O)N[C@@H](CCCCN)C(=O)N3)C(=O)N[C@@H](CC(C)C)C(=O)N1CCC[C@H]1C(=O)N1CCC[C@H]1C(=O)N2` [HgTx1, hongotoxin 1] (H-TVIDVKCTSPKQCLPPCKAQFGIRAGAKCMNGKCKCYPH-OH; disulfide 7-29, 13-34, 17-36 (inferred); N-terminus and C-terminus assumed), the “block of K-Kv1.2 channel currents” value in the assay on K-Kv1.2 channel (2 nM HgTx1, whole-cell, room temperature, n = 10) was found to be 84 ± 2%. Moreover, at Kv1.1 channel (K-Kv1.1) [2], the Kd is 30 ± 20 pM. Further, the IC50 in the assay with Kv1.2 channels is 140 pM.
